Species on record: Rattus norvegicus
Test: Open TG-GATES - Regimen: Single
Type: toxicity, organism-based, Sprague-Dawley
Set-up: regimen Single, gender Male, age 6 weeks
Settings: in vivo, po, 10 mg/kg, route gavage, dose level High; for APTT / Bas / Eos / Fbg / Hb / Ht / Lym / MCH / MCHC / MCV / Mono / Neu / PT / Plat / RBC / Ret / WBC: tissue Blood; for KIDNEY_L / KIDNEY_R / KIDNEY_TOTAL: tissue Kidney; for LIVER: tissue Liver; for A/G / ALP / ALT / AST / BUN / CRE / Ca / Cl / DBIL / GLC / IP / K / LDH / Na / PL / RALB / TBIL / TC / TG / TP / gamma-GTP: tissue Plasma

CN1C(C(=O)Nc2ccccn2)=C(O)c2sc(Cl)cc2S1(=O)=O [LORNOXICAM]
TERMINAL_BW (3 h): 225.5 g
APTT (3 h): 20.6 s
Bas (3 h): 0.6%
Eos (3 h): 1%
Fbg (3 h): 212.8 mg/dL
Hb (3 h): 13.3 g/dL
Ht (3 h): 40.2%
Lym (3 h): 76%
MCH (3 h): 20.9 pg
MCHC (3 h): 33.3%
MCV (3 h): 63 fL
Mono (3 h): 2.8%
Neu (3 h): 19.2%
PT (3 h): 11.8 s
Plat (3 h): 112.2 x10_4/uL
RBC (3 h): 638.8 x10_4/ul
Ret (3 h): 7.5%
WBC (3 h): 112.4 x10_2/uL
KIDNEY_L (3 h): 1 g
KIDNEY_R (3 h): 1 g
KIDNEY_TOTAL (3 h): 1.9 g
LIVER (3 h): 10.3 g
A/G (3 h): 1.8
ALP (3 h): 965.2 IU/L
ALT (3 h): 42.2 IU/L
AST (3 h): 79.2 IU/L
BUN (3 h): 13.4 mg/dL
CRE (3 h): 0.4 mg/dL
Ca (3 h): 10.7 mg/dL
Cl (3 h): 104.4 meq/L
DBIL (3 h): 0.074 mg/dL
GLC (3 h): 193.6 mg/dL
IP (3 h): 9 mg/dL
K (3 h): 4.1 meq/L
LDH (3 h): 188.8 IU/L
Na (3 h): 142.2 meq/L
PL (3 h): 139.2 mg/dL
RALB (3 h): 3.5 g/dL
TBIL (3 h): 0.1 mg/dL
TC (3 h): 76.8 mg/dL
TG (3 h): 38.2 mg/dL
TP (3 h): 5.5 g/dL
gamma-GTP (3 h): 0.6 IU/L
TERMINAL_BW (6 h): 223.7 g
APTT (6 h): 19.5 s
Bas (6 h): 0.6%
Eos (6 h): 0.8%
Fbg (6 h): 229.2 mg/dL
Hb (6 h): 13.2 g/dL
Ht (6 h): 39.3%
Lym (6 h): 76.8%
MCH (6 h): 20.5 pg
MCHC (6 h): 33.6%
MCV (6 h): 60.9 fL
Mono (6 h): 2.8%
Neu (6 h): 18.6%
PT (6 h): 12.1 s
Plat (6 h): 129.2 x10_4/uL
RBC (6 h): 644.8 x10_4/ul
Ret (6 h): 6.7%
WBC (6 h): 96.3 x10_2/uL
KIDNEY_L (6 h): 1 g
KIDNEY_R (6 h): 1 g
KIDNEY_TOTAL (6 h): 2 g
LIVER (6 h): 9.6 g
A/G (6 h): 1.6
ALP (6 h): 989.2 IU/L
ALT (6 h): 46.8 IU/L
AST (6 h): 78.6 IU/L
BUN (6 h): 12.8 mg/dL
CRE (6 h): 0.3 mg/dL
Ca (6 h): 10.5 mg/dL
Cl (6 h): 104.8 meq/L
DBIL (6 h): 0.072 mg/dL
GLC (6 h): 196.2 mg/dL
IP (6 h): 8.6 mg/dL
K (6 h): 3.9 meq/L
LDH (6 h): 219 IU/L
Na (6 h): 141.8 meq/L
PL (6 h): 137 mg/dL
RALB (6 h): 3.5 g/dL
TBIL (6 h): 0.1 mg/dL
TC (6 h): 75.8 mg/dL
TG (6 h): 56.4 mg/dL
TP (6 h): 5.6 g/dL
gamma-GTP (6 h): 1 IU/L
TERMINAL_BW (9 h): 221.8 g
APTT (9 h): 18.9 s
Bas (9 h): 0.4%
Eos (9 h): 0.8%
Fbg (9 h): 215.6 mg/dL
Hb (9 h): 13.2 g/dL
Ht (9 h): 39.2%
Lym (9 h): 63.6%
MCH (9 h): 21.1 pg
MCHC (9 h): 33.7%
MCV (9 h): 62.6 fL
Mono (9 h): 4.2%
Neu (9 h): 30.6%
PT (9 h): 12.5 s
Plat (9 h): 113.4 x10_4/uL
RBC (9 h): 627.4 x10_4/ul
Ret (9 h): 7%
WBC (9 h): 97.9 x10_2/uL
KIDNEY_L (9 h): 1 g
KIDNEY_R (9 h): 1 g
KIDNEY_TOTAL (9 h): 2 g
LIVER (9 h): 9.3 g
A/G (9 h): 1.7
ALP (9 h): 755.2 IU/L
ALT (9 h): 35.6 IU/L
AST (9 h): 69.8 IU/L
BUN (9 h): 13.8 mg/dL
CRE (9 h): 0.3 mg/dL
Ca (9 h): 10.5 mg/dL
Cl (9 h): 103.6 meq/L
DBIL (9 h): 0.08 mg/dL
GLC (9 h): 188 mg/dL
IP (9 h): 9.1 mg/dL
K (9 h): 4.1 meq/L
LDH (9 h): 195.6 IU/L
Na (9 h): 141.4 meq/L
PL (9 h): 130.8 mg/dL
RALB (9 h): 3.3 g/dL
TBIL (9 h): 0.1 mg/dL
TC (9 h): 67.6 mg/dL
TG (9 h): 59.2 mg/dL
TP (9 h): 5.3 g/dL
gamma-GTP (9 h): 1.2 IU/L
TERMINAL_BW (24 h): 236.6 g
APTT (24 h): 21.2 s
Bas (24 h): 0.2%
Eos (24 h): 0.4%
Fbg (24 h): 261 mg/dL
Hb (24 h): 12.8 g/dL
Ht (24 h): 38.5%
Lym (24 h): 54%
MCH (24 h): 20.9 pg
MCHC (24 h): 33.2%
MCV (24 h): 63.1 fL
Mono (24 h): 4%
Neu (24 h): 39.6%
PT (24 h): 12 s
Plat (24 h): 119.9 x10_4/uL
RBC (24 h): 610.2 x10_4/ul
Ret (24 h): 6.5%
WBC (24 h): 162.1 x10_2/uL
KIDNEY_L (24 h): 1.1 g
KIDNEY_R (24 h): 1.1 g
KIDNEY_TOTAL (24 h): 2.2 g
LIVER (24 h): 11.6 g
A/G (24 h): 1.5
ALP (24 h): 949.2 IU/L
ALT (24 h): 38.6 IU/L
AST (24 h): 69.8 IU/L
BUN (24 h): 13.4 mg/dL
CRE (24 h): 0.4 mg/dL
Ca (24 h): 10.4 mg/dL
Cl (24 h): 105 meq/L
DBIL (24 h): 0.1 mg/dL
GLC (24 h): 203.6 mg/dL
IP (24 h): 7.6 mg/dL
K (24 h): 4.1 meq/L
LDH (24 h): 214.2 IU/L
Na (24 h): 141.4 meq/L
PL (24 h): 148.2 mg/dL
RALB (24 h): 3.1 g/dL
TBIL (24 h): 0.2 mg/dL
TC (24 h): 74.6 mg/dL
TG (24 h): 108.8 mg/dL
TP (24 h): 5.1 g/dL
gamma-GTP (24 h): 1 IU/L

— ChEMBL document CHEMBL3885861, “Open TG-GATES”
